Test results taken from ChEMBL document CHEMBL1201862, “PubChem BioAssay data set” (2004).
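Assay format: 96-well plates, 48-hour exposure. The concentration for 50% growth inhibition is given as GI50.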 Activity calls are given as the source filed them. Rule as the data show it: active = GI50 up to about 1.1 µM and inactive = higher.

Tests used:
Assay in all cases: growth of human tumour cells (NCI), 48 h
DMS-114 = tested on: DMS-114
DMS-273 = tested on: DMS-273
HOP-18 = tested on: HOP-18
LXFL 529 = tested on: LXFL 529
M19-MEL = tested on: M19-MEL
XF498 = tested on: XF498
Hs-578T = tested on: Hs-578T
KM-20L2 = tested on: KM-20L2
RXF 631 = tested on: RXF 631

Q: Which results are given for `O=C(NN1C(=O)C(Cl)C1c1ccc(O)cc1)c1ccccc1O` (stereo not given)?
A: GI50 (DMS-114): 14 µM (inactive); GI50 (DMS-273): 12.9 µM (inactive); GI50 (HOP-18): 15.9 µM (inactive); GI50 (LXFL 529): 17.9 µM (inactive); GI50 (M19-MEL): 21.7 µM (inactive); GI50 (XF498): 11.1 µM (inactive)

Q: What does the source list for `O=Nc1ccc(O)c2ncccc12`?
A: GI50 (DMS-114): 3.9 µM (inactive); GI50 (DMS-273): 2.55 µM (inactive); GI50 (HOP-18): 11.3 µM (inactive); GI50 (Hs-578T): 0.531 µM (active); GI50 (KM-20L2): 23.9 µM (inactive); GI50 (LXFL 529): 2.38 µM (inactive); GI50 (M19-MEL): 4.25 µM (inactive)

Q: Which GI50 (DMS-273) does the source give for `O=C1C=C(O)c2nc(O)ccc2C1=O` here?
A: > 100 µM (inactive)

Q: What about the GI50 (KM-20L2) of the same compound?
A: > 100 µM (inactive)

Q: What about the GI50 (M19-MEL) of the same compound?
A: > 100 µM (inactive)

Q: What about the GI50 (XF498) of the same compound?
A: > 100 µM (inactive)

Q: Which GI50 (Hs-578T) does the source give for `COc1cc2c(cc1OC)C13CCN4CC5=CCOC(CC(=O)O)C(C5CC41)C3N2` (stereo not given) here?
A: > 100 µM (inactive)

Q: For `COc1ccccc1NCc1nnc(CCCCCCCCc2nnc(CNc3ccccc3OC)o2)o1`, which GI50 (Hs-578T) is on record?
A: > 100 µM (inactive)

Q: How did the GI50 (DMS-114) turn out when `CCc1cccc(C(C)C)c1C1C(=O)C(=O)N(c2nc3ccccc3s2)C(=O)C1=O` was run?
A: > 100 µM (inactive)

Q: And the GI50 (DMS-273)?
A: > 100 µM (inactive)

Q: And the GI50 (HOP-18)?
A: > 100 µM (inactive)

Q: And the GI50 (KM-20L2)?
A: > 100 µM (inactive)

Q: What about the GI50 (LXFL 529) of the same compound?
A: > 100 µM (inactive)

Q: And the GI50 (M19-MEL)?
A: > 100 µM (inactive)

Q: And the GI50 (RXF 631)?
A: > 100 µM (inactive)

Q: Which results are given for `Cc1ccc(NC(=O)C(=O)C(C#N)c2ccccc2C)cc1C` (stereo not given)?
A: GI50 (DMS-114): > 41.7 µM (inactive); GI50 (DMS-273): > 71.6 µM (inactive); GI50 (HOP-18): > 100 µM (inactive); GI50 (KM-20L2): > 79.8 µM (inactive); GI50 (LXFL 529): > 100 µM (inactive); GI50 (XF498): > 100 µM (inactive)

Q: How did the GI50 (DMS-114) turn out when `Cc1cc(C)[n+]2c(c1)C=CC2.[O-][Cl+3]([O-])([O-])[O-]` was run?
A: 5.5 µM (inactive)

Q: And the GI50 (DMS-273)?
A: 0.459 µM (active)

Q: What about the GI50 (KM-20L2) of the same compound?
A: 21.3 µM (inactive)

Q: What about the GI50 (LXFL 529) of the same compound?
A: 16.5 µM (inactive)

Q: And the GI50 (M19-MEL)?
A: 21.2 µM (inactive)

Q: `O=C1C[C@H](c2ccc(O)c(O)c2)Oc2cc(O)cc(O)c21` was tested. Which GI50 (DMS-114) did it give?
A: 21.2 µM (inactive)

Q: What about the GI50 (DMS-273) of the same compound?
A: > 100 µM (inactive)

Q: And the GI50 (HOP-18)?
A: > 100 µM (inactive)

Q: And the GI50 (KM-20L2)?
A: > 100 µM (inactive)

Q: And the GI50 (LXFL 529)?
A: > 100 µM (inactive)

Q: What about the GI50 (M19-MEL) of the same compound?
A: > 100 µM (inactive)

Q: What about the GI50 (RXF 631) of the same compound?
A: 64.4 µM (inactive)

Q: Which GI50 (Hs-578T) does the source give for `Cc1cc(NCC2CC/C(=C\C=C\c3ccccc3)C2=O)no1` (stereo not given) here?
A: 85.1 µM (inactive)

Q: Which GI50 (Hs-578T) does the source give for `CCOC(=O)C1(C(C)=O)OC(=O)c2cnccc21` (stereo not given) here?
A: > 100 µM (inactive)

Q: For `O=C(c1ccco1)N(C(=O)N1CCN(c2ccccc2)CC1)S(=O)(=O)c1ccccc1`, which GI50 (Hs-578T) is on record?
A: 32 µM (inactive)

Q: How did the GI50 (Hs-578T) turn out when `COC(=O)C1C(OS(=O)(=O)O)CCC2CN3CCc4c([nH]c5ccccc45)C3CC21` (stereo not given) was run?
A: > 100 µM (inactive)

Q: With `COc1ccc2c(c1)c1c(n2CCN2CCCCC2)-c2ccccc2CC1` as the compound, how does the GI50 (Hs-578T) read?
A: 13.5 µM (inactive)

Q: `O=C(O)c1nn[nH]c1S` was tested. Which GI50 (Hs-578T) did it give?
A: > 100 µM (inactive)

Q: With `COC(=O)CCC(=O)NC1=C(Nc2ccccc2)C(=O)c2ccccc2C1=O` as the compound, how does the GI50 (Hs-578T) read?
A: 7.18 µM (inactive)

Q: `CC(C)(C)C(=O)OCC1CCC[N+]2(C)CCCCC12` (stereo not given) was tested. Which GI50 (Hs-578T) did it give?
A: > 100 µM (inactive)

Q: Which GI50 (DMS-114) does the source give for `CC(=O)Nc1ccc(C(=O)N2N=C(C)/C(=C/c3ccc(O)cc3)C2=O)cc1` here?
A: > 100 µM (inactive)

Q: And the GI50 (DMS-273)?
A: > 100 µM (inactive)

Q: And the GI50 (M19-MEL)?
A: > 100 µM (inactive)

Q: What about the GI50 (XF498) of the same compound?
A: > 100 µM (inactive)

Q: Which GI50 (DMS-114) does the source give for `BrC(/C=N/Nc1nnc(-c2ccccc2)c(-c2ccccc2)n1)C(Br)c1ccccc1` (stereo not given) here?
A: 23.7 µM (inactive)

Q: What about the GI50 (DMS-273) of the same compound?
A: 30.5 µM (inactive)

Q: What about the GI50 (KM-20L2) of the same compound?
A: 39.8 µM (inactive)

Q: What about the GI50 (M19-MEL) of the same compound?
A: 36.1 µM (inactive)

Q: And the GI50 (RXF 631)?
A: 51.4 µM (inactive)

Q: What about the GI50 (XF498) of the same compound?
A: 25.3 µM (inactive)

Q: How did the GI50 (Hs-578T) turn out when `BrCC[N+]12CC[N+](CCBr)(CC1)C2` was run?
A: > 100 µM (inactive)

Q: For `CCC1(CC)CC(=NNS(=O)(=O)c2ccc(C)cc2)C1`, which GI50 (Hs-578T) is on record?
A: > 100 µM (inactive)

Q: `O=c1c2nc(-c3ccccc3)oc2n(-c2ccccc2)c(=O)n1-c1ccccc1` was tested. Which GI50 (Hs-578T) did it give?
A: 21.9 µM (inactive)

Q: `COc1ccc2cc1Oc1ccc(cc1)C(Sc1ccccc1)CCOC(=O)CC2` (stereo not given) was tested. Which GI50 (Hs-578T) did it give?
A: > 100 µM (inactive)

Q: What does the source list for `CCCN(CCC)C1=Nc2ccccc2-n2cnnc2C1`?
A: GI50 (DMS-114): > 100 µM (inactive); GI50 (DMS-273): > 100 µM (inactive); GI50 (KM-20L2): > 100 µM (inactive); GI50 (LXFL 529): > 100 µM (inactive); GI50 (M19-MEL): > 100 µM (inactive); GI50 (XF498): > 100 µM (inactive)

Q: For `CN(C)c1nc(N(C)C)sc(=O)n1`, which GI50 (DMS-114) is on record?
A: > 100 µM (inactive)

Q: And the GI50 (DMS-273)?
A: > 100 µM (inactive)

Q: And the GI50 (HOP-18)?
A: > 100 µM (inactive)

Q: What about the GI50 (KM-20L2) of the same compound?
A: > 100 µM (inactive)

Q: And the GI50 (LXFL 529)?
A: > 100 µM (inactive)

Q: And the GI50 (M19-MEL)?
A: > 100 µM (inactive)

Q: And the GI50 (XF498)?
A: > 100 µM (inactive)

Q: Which GI50 (Hs-578T) does the source give for `CCC(N)(C(=O)O)C(C)C` (stereo not given) here?
A: > 100 µM (inactive)

Q: How did the GI50 (Hs-578T) turn out when `COc1cc(C(=O)O)c(-c2cc3c(cc2C=O)OCO3)c(OC)c1OC` was run?
A: > 10 µM (inactive)

Q: For `C1=N\CCNCC/N=C/c2ccccc2OCc2cccc(n2)COc2ccccc2/1`, which GI50 (Hs-578T) is on record?
A: 9.51 µM (inactive)

Q: How did the GI50 (Hs-578T) turn out when `[Se]=P(c1ccccc1)(c1ccccc1)c1ccc(C(c2ccccc2)=P(c2ccccc2)(c2ccccc2)c2ccccc2)cc1` was run?
A: 0.435 µM (active)

Q: Which results are given for `COc1ccc(C(c2c(O)c3ccccc3n(-c3ccccc3)c2=O)c2c(O)c3ccccc3n(-c3ccccc3)c2=O)cc1`?
A: GI50 (DMS-114): > 100 µM (inactive); GI50 (DMS-273): > 100 µM (inactive); GI50 (HOP-18): > 100 µM (inactive); GI50 (KM-20L2): > 100 µM (inactive); GI50 (LXFL 529): > 100 µM (inactive); GI50 (M19-MEL): > 100 µM (inactive); GI50 (XF498): 59.3 µM (inactive)
